Measured values as given in a melting point compilation (Tetko et al.; mined from patent text by program, amines drawn as free bases though some values may be those of a salt).

Cn1cc(SCc2ccccc2)c(=O)c(-c2cccc(C(F)(F)F)c2)c1 and CN1C(=O)CN=C(c2cccc(C(F)(F)F)c2)c2ccccc21 fall in the same range of melting point: 121 to 122 °C for the first, 121 to 122 °C for the second.

Compared with COC(=O)CC(NC1CC1)=C(C(=O)OC)C(=O)C(F)(F)C(F)(F)F, O=C(CCC(F)(F)F)N[C@H]1CC[C@H](CCN2CCC(c3cccc4c3CCO4)CC2)CC1 is higher in melting point: 32 to 34 °C for the first, 200 °C for the second.

Compared with Oc1ccc(Nc2nc(NCc3ccco3)nc(N3CCOCC3)n2)cc1, Cc1nc(-c2ccccc2)nc(N2CCN(c3ccc(O)cc3)CC2)c1C is higher in melting point: 163 to 165 °C for the first, 202 °C for the second.

First: CCCCCCCCCCCCCCC(OC)C(=O)OC (stereo not given)
Second: CCCCCCCCCCCCCC[C@]1(C)OO[C@@H]2C[C@H]1CC(=O)[C@@H]2C
The melting point of the first is lower: 28.6 to 30.6 °C for the first, 46 °C for the second.

First: CN(C)Cc1sc(C(c2ccc(Cl)cc2)c2c(Cl)cc(-n3ncc(=O)[nH]c3=O)cc2Cl)nc1-c1ccccc1F (stereo not given)
Second: Cc1cccc(NC(=O)NC2N=C(c3ccccc3F)c3ccccc3N(Cc3nccc4ccccc34)C2=O)c1 (racemic)
The melting point of the first is higher: 250 °C for the first, 145 to 147 °C for the second.

Compared with O=c1oc2c(Cl)cccc2c(O)c1-c1ccccc1, O=c1cc(-c2cc(F)c(O)c(F)c2)oc2ccccc12 is higher in melting point: 245 °C for the first, 275 to 276 °C for the second.

First: CC(C)(C)c1cc(C(=O)c2ccccn2)cc2c1OCC2(C)C
Second: Cc1nc2c3c(ccn2c1C)C(=O)[C@H](OC(=O)C(C)(C)C)[C@@H](c1ccccc1)N3
The melting point of the first is lower: 95 to 97 °C for the first, 185 to 187 °C for the second.

Compared with CCCCc1nc2c(N)nc3ccccc3c2n1CCCCSC, C=CCc1nc(SC)nc2ccccc12 is higher in melting point: 127 to 130 °C for the first, 133 to 135 °C for the second.

First: CNC(=O)c1ccc(N2CCN(Cc3cc(C)c4c(c3)NC(=O)C(C)O4)CC2)c(C)c1 (stereo not given)
Second: Cc1csc(N2CCN(CC(O)c3ccc(O)c(C(N)=O)c3)CC2)n1 (stereo not given)
The melting point of the first is lower: 113 to 120 °C for the first, 182 °C for the second.

First: CC(C)CC1=NC=C2C=CC(=O)NC3=C2N1CC3
Second: CC(C)OC(=O)C1=C(c2cn(C)c3ccccc23)C(=O)NC1=O
The melting point of the first is higher: 211 to 212 °C for the first, 199 to 202 °C for the second.

First: CCCCn1c(=O)c2cc(C(=O)OCC)cn2c2ccccc21
Second: CCCC1=C(C(=O)OCC)C(c2cccc3ccsc23)c2c[nH]nc2N1 (stereo not given)
The melting point of the first is lower: 146 to 148 °C for the first, 166 °C for the second.

First: CS(=O)(=O)c1ccc(C(CC2CCCC2)C(=O)O)cc1C#N (stereo not given)
Second: COC(=O)COc1cc(C(=O)N2CCOCC2)ccc1[N+](=O)[O-]
The melting point of the first is higher: 180 to 181 °C for the first, 140 to 142 °C for the second.

Cc1cc(Br)ccc1C(CO)NC(=O)c1c(Cl)cncc1Cl (stereo not given) and NC(=O)CCN1CCC(CNc2ccc(Cl)cc2C(=O)Nc2ccc(Cl)cn2)CC1 cannot be ordered by melting point: 192 to 194 °C for the first, 193 to 196 °C for the second.

Compared with NC(=O)C(CCO)N1CCCC1=O (stereo not given), Cc1ccc(OC(=O)N2CCCC2=O)cc1 is lower in melting point: 164 to 165 °C for the first, 101 to 102 °C for the second.

First: COc1ccc(-c2ccnc(Nc3cc(OC)c(OC)c(OC)c3)n2)cc1
Second: COc1cc(Nc2nccc(-c3ccc(NCCO)nc3)n2)cc(OC)c1OC
The melting point of the first is higher: 148 to 150 °C for the first, 123 °C for the second.

Compared with CN1CCN(C(=O)NC(CS)Cc2ccccc2)CC1 (single isomer, unassigned; (-)), COc1cc2nc(N3CCN(C(=S)Nc4ccccc4)CC3)nc(N)c2cc1OC is higher in melting point: 68 to 70 °C for the first, 138 to 140 °C for the second.

First: O=S1(=O)N=C(NC2(CO)CCCC2)Nc2cc(Cl)sc21
Second: O[C@@H]1CCN(Cc2nc(-c3ccc4c(c3)Nc3ccccc3S4)cs2)C1
The melting point of the first is higher: 213 to 214 °C for the first, 178 to 180 °C for the second.

First: CCNc1nc(-c2cccc([N+](=O)[O-])c2)c2cc(OC)c(OC)cc2n1
Second: COc1cc(OC)c2cc(-c3ccc([N+](=O)[O-])cc3)oc2c1
The melting point of the first is lower: 164 to 166 °C for the first, 192 to 193 °C for the second.

First: NC(=O)c1cccc(-c2cccc3cc(Cc4cccc(C(F)(F)F)c4)sc23)c1
Second: CC(C)(C)c1ccc(OCC(=O)Nc2nnc(-c3cccc(Oc4cccc(C(F)(F)F)c4)c3)s2)cc1
The melting point of the first is lower: 153 to 154 °C for the first, 179 to 180 °C for the second.

First: CC(O)CCCCc1ccc(S(N)(=O)=O)s1 (stereo not given)
Second: CCCCCC(=O)C=Cc1ccc(CCCCCCCCCC(=O)OC)s1
The melting point of the first is higher: 75 to 76 °C for the first, 45 to 47 °C for the second.

First: Oc1ccc(CC(=S)Nc2ncc(-c3ccc(O)cc3)nc2Cc2ccccc2)cc1
Second: COC(=O)Cc1cn(Cc2ccc(OCc3ccccc3)cc2)nc1-c1ccc(F)cc1
The melting point of the first is higher: 101 to 103 °C for the first, 58 to 59 °C for the second.

First: CNc1cccc(S(N)(=O)=O)n1
Second: CC(=O)N(C)c1cccnc1S(N)(=O)=O
The melting point of the first is lower: 124 to 126 °C for the first, 181 to 185 °C for the second.

First: Clc1ccc2c(c1)C(c1ccco1)=NCC1CSCCN21 (stereo not given)
Second: O=C1c2ccccc2-n2cnc(CO)c2[C@@H]2CCCN12
The melting point of the first is lower: 138 to 140 °C for the first, 212 to 214 °C for the second.

First: COc1cccc2c(Cl)nc(Cl)nc12
Second: CCc1nc2c([nH]1)c(=O)n(C)c(=O)n2-c1ccc(Cl)cc1Cl
The melting point of the first is lower: 155 to 157 °C for the first, 274 to 276 °C for the second.

First: N#Cc1ccc(-c2cc3ccc(C#N)cc3[nH]2)cc1
Second: Fc1ccc(-c2nccc3c(CCl)cccc23)cc1
The melting point of the first is higher: 270 to 275 °C for the first, 110 to 112 °C for the second.

First: Nc1nc2c(ncn2C2C=CC(CO)O2)c(=O)[nH]1 (stereo not given)
Second: Cn1c(CO)nc2ccc(-c3ccccc3)nc21
The melting point of the first is higher: > 250 °C for the first, 174 to 177 °C for the second.

First: Cc1cc(N(C)C(N)=O)no1
Second: CC(=O)Nc1c(C)cc(F)cc1[N+](=O)[O-]
The melting point of the first is lower: 146 to 147 °C for the first, 167 to 172 °C for the second.

First: CC(C)c1ccc(-c2nc(-c3cccc(C(=O)O)c3)co2)cc1
Second: c1ccc(-c2noc(-c3cccc4ccccc34)n2)nc1
The melting point of the first is higher: 187 to 189 °C for the first, 132 to 136 °C for the second.

Compared with O=S1(=O)c2cccc3cccc(c23)N1CCCN1CCC(c2c[nH]c3ccccc23)CC1, O=C1Cc2cccc(Oc3ccc4ccccc4c3)c2N1 is higher in melting point: 162 °C for the first, 195 to 197 °C for the second.

First: CC(C)Oc1cccc(C=C(C=O)C(C=O)=Cc2cccc(OC(C)C)c2)c1
Second: CC(C)c1cccc(C(C)C)c1NC(=O)Nc1nnnn1Cc1ccccc1
The melting point of the first is lower: 116 to 117 °C for the first, 195 to 197 °C for the second.

First: O=[N+]([O-])c1ccc(CO)c(Nc2nccc(-c3cccnc3)n2)c1
Second: CSc1nc(-c2cccnc2)n(-c2ccc(C)c(C)c2)c(=O)c1C#N
The melting point of the first is lower: 247 to 250 °C for the first, > 250 °C for the second.

First: CCCCN(CCCC)Cc1nnc(-c2ncn3c2CN(C)C(=O)c2c(Cl)cccc2-3)o1
Second: CN(Cc1sc2c(=O)c(C(=O)NCc3ccc(Cl)cc3)cn(C)c2c1CNS(C)(=O)=O)C[C@@H](O)c1ccccn1
The melting point of the first is lower: 105 to 108 °C for the first, 171 to 177 °C for the second.

First: COc1ncc(C=O)cc1Cl
Second: COC=C(C#N)C(=O)c1cc(F)c(Cl)cc1Cl
The melting point of the first is lower: 152 °C for the first, 159 °C for the second.

Compared with Cn1ncc(/C=C/C(=O)Nc2ccc(Cn3ccnc3)cc2)c1-c1ccc(F)cc1, CN(C)c1nc(NCc2ccc(NC(=O)c3ccc(F)cc3)cc2)c2ccc(C#N)cc2n1 is lower in melting point: 213 to 214 °C for the first, 150 °C for the second.

First: CN(C)CC(C)(C)Oc1cnc(Nc2cc(-c3cccc(-n4ncc5cc(C(C)(C)C)cc(F)c5c4=O)c3CO)nn(C)c2=O)cn1
Second: COC(=O)Oc1cc2c(c(O)c1C)C(=O)c1c(OC)c3c(c(O)c1C2=O)-c1c(cc2cnn(-c4ccccc4)c(=O)c2c1O)CC3
The melting point of the first is lower: 235 to 240 °C for the first, > 350 °C for the second.

Compared with CCOc1cc(OCC)nc(-c2ccc(C=O)cc2)n1, C#CCOc1cc(Oc2ccc(OC)cc2)ncn1 is lower in melting point: 87 to 88 °C for the first, 72 °C for the second.

First: CCOC(=O)CCNc1ncccc1NC(=O)c1cccc(Cl)c1
Second: O=C(O)CNC(=O)c1ccccc1NC(=O)c1ccccc1O
The melting point of the first is lower: 111 to 112 °C for the first, 222 to 224 °C for the second.

Compared with CC(C)c1c(CCC=O)c2c(c(C(C)C)c1OCc1ccccc1)CC(C)(C)O2, CC[C@H](C)[C@H](NS(=O)(=O)c1cccc2ccccc12)C(=O)N[C@H]1CCOC1OC (stereo not given in full) is higher in melting point: 120 to 122 °C for the first, 125 to 127 °C for the second.

Compared with O=C(O)c1ccc2cccnc2c1O, COc1ccccc1C(CSc1ccccc1N)C(=O)O (stereo not given) is lower in melting point: 264 to 266 °C for the first, 85 °C for the second.

First: COc1ccc(-n2nnnc2C(F)(F)F)cc1CN[C@H]1CCN(C(=O)CNC(C)=O)C[C@H]1c1ccccc1
Second: COc1cc2c(c(C(=O)O)c1OC)CCN(Cc1ccccc1)CC2c1ccccc1 (stereo not given)
The melting point of the first is lower: 112 to 115 °C for the first, 145 to 153 °C for the second.

Compared with CCOc1c(C=O)sc(NC(C)=O)c1C#N, COc1ccc(C=C(C#N)C(N)=O)c([N+](=O)[O-])c1OC is lower in melting point: 276 to 277 °C for the first, 194 to 195 °C for the second.

First: O=C(COC(=O)C(O)Cc1ccccc1)Oc1ccccc1 (stereo not given)
Second: O=C(CCNC(=O)c1ccccc1)NCCSC(=O)c1ccccc1
The melting point of the first is lower: 98 to 99 °C for the first, 154 to 155 °C for the second.

First: CC1=C(C(=O)O)C(c2cccc([N+](=O)[O-])c2)C(C(=O)OCCC#N)=C(C)N1 (stereo not given)
Second: COC(=O)c1ccc(CCCCc2c(N)nc(N)nc2O)cc1
The melting point of the first is lower: 131 to 132 °C for the first, 203 to 205 °C for the second.

Compared with COCOc1cc2c(c3ccccc13)Nc1ccccc1S2, COc1c(O)c(C)c2c(c1OC)Nc1ccccc1S2 is higher in melting point: 103 °C for the first, 218 to 220 °C for the second.

Compared with CCOc1nc(N2CCSCC2)nc(Cl)c1[N+](=O)[O-], CC(C)Oc1cc(Oc2ccc(S(C)(=O)=O)cn2)cc2cc(C3=NCC(CCO)S3)[nH]c12 (stereo not given) is higher in melting point: 149 to 150 °C for the first, 172 to 173 °C for the second.

First: COc1cc(Nc2c(C#N)cnc3cc(-c4ccc(CNCCc5ccccn5)o4)ccc23)c(Cl)cc1Cl
Second: N#Cc1cnc2cc3cc(O)c(O)cc3cc2c1Nc1ccc(Cl)cc1Cl
The melting point of the first is lower: 130 to 135 °C for the first, > 260 °C for the second.

First: BrCCCCOc1ccc(OCCCCBr)cc1
Second: CCCCCCCCCCC[C@H](CC(=O)N[C@@H](CO)CCCNC(=O)OCc1ccccc1)OCc1ccccc1
The melting point of the first is lower: 89 to 91 °C for the first, 118 °C for the second.

First: CCCCCCCCCCCCCCCC1=CC=CC(=O)C12CO2 (stereo not given)
Second: CCOC(=O)CC[C@H](NC(=O)c1ccc(CN(C=O)CC2CNc3nc(NC(=O)C(C)(C)C)nc(O)c3C2)cc1)C(=O)OCC (stereo not given in full)
The melting point of the first is lower: 45 to 47 °C for the first, 149 to 151 °C for the second.

Compared with CN1C(=O)C(C(=O)Nc2ccc(Oc3ccc(C(F)(F)F)cn3)cc2)C(=O)N(C)C1=O, N#Cc1cnc2c(sc3ccccc32)c1Nc1ccc(Cl)cc1F is higher in melting point: 180 to 181 °C for the first, 250 to 251 °C for the second.

First: COc1cc(CC(=O)NCCOCc2ccc(C)c(C)c2)ccc1O
Second: CON1C=C2N=Nc3cc(-c4ccccc4)cnc3N2C1
The melting point of the first is lower: 82 to 83 °C for the first, 225 to 227 °C for the second.
